From the NIST ThermoML archive (doi:10.1021/acs.jced.8b00554)

Assay: xn = mol fraction of the nth substance listed
Settings: Liquid, Vibrating tube method

CCCCCCCCC [nonane] + CCCO
mass density [kg/m3]
Settings | 353.15 K | 363.15 K
100 kPa, x2 = 0.1231 | – | 655.98
100 kPa, x2 = 0.2315 | – | 657.04
100 kPa, x2 = 0.3229 | – | 658.57
100 kPa, x2 = 0.4272 | – | 662.45
100 kPa, x2 = 0.7021 | – | 683
100 kPa, x2 = 0.8941 | – | 710.52
1000 kPa, x2 = 0.1231 | – | 657.23
1000 kPa, x2 = 0.8941 | – | 710.94
1010 kPa, x2 = 0.2315 | – | 659.34
1010 kPa, x2 = 0.4272 | – | 664.09
1010 kPa, x2 = 0.7021 | – | 683.53
1020 kPa, x2 = 0.3229 | – | 660.57
2010 kPa, x2 = 0.1231 | – | 658.47
2010 kPa, x2 = 0.2315 | – | 660.57
2010 kPa, x2 = 0.3229 | – | 661.82
2010 kPa, x2 = 0.4272 | – | 665.32
2010 kPa, x2 = 0.7021 | – | 684.79
2010 kPa, x2 = 0.8941 | – | 712.1
3010 kPa, x2 = 0.2315 | – | 661.79
3010 kPa, x2 = 0.3229 | – | 663.05
3010 kPa, x2 = 0.7021 | – | 686.04
3010 kPa, x2 = 0.8941 | – | 713.33
3020 kPa, x2 = 0.1231 | – | 659.67
3020 kPa, x2 = 0.4272 | – | 666.57
4010 kPa, x2 = 0.1231 | – | 660.89
4010 kPa, x2 = 0.3229 | – | 664.28
4010 kPa, x2 = 0.4272 | – | 667.83
4010 kPa, x2 = 0.7021 | – | 687.34
4010 kPa, x2 = 0.8941 | – | 714.55
4020 kPa, x2 = 0.2315 | – | 663.04
5000 kPa, x2 = 0.4272 | – | 669.09
5000 kPa, x2 = 0.7021 | – | 688.61
5010 kPa, x2 = 0.1231 | – | 662.09
5010 kPa, x2 = 0.2315 | – | 664.23
5010 kPa, x2 = 0.3229 | – | 665.52
5010 kPa, x2 = 0.8941 | – | 715.78
6000 kPa, x2 = 0.7021 | – | 689.86
6010 kPa, x2 = 0.2315 | – | 665.41
6010 kPa, x2 = 0.4272 | – | 670.36
6010 kPa, x2 = 0.8941 | – | 717.03
6020 kPa, x2 = 0.1231 | – | 663.3
6020 kPa, x2 = 0.3229 | – | 666.76
7000 kPa, x2 = 0.3229 | – | 667.99
7000 kPa, x2 = 0.7021 | – | 691.15
7010 kPa, x2 = 0.1231 | – | 664.48
7010 kPa, x2 = 0.2315 | – | 666.62
7020 kPa, x2 = 0.4272 | – | 671.62
7020 kPa, x2 = 0.8941 | – | 718.27
8000 kPa, x2 = 0.3229 | – | 669.23
8000 kPa, x2 = 0.7021 | – | 692.44
8010 kPa, x2 = 0.8941 | – | 719.48
8020 kPa, x2 = 0.1231 | – | 665.72
8020 kPa, x2 = 0.2315 | – | 667.87
8020 kPa, x2 = 0.4272 | – | 672.88
9000 kPa, x2 = 0.2315 | – | 669.09
9000 kPa, x2 = 0.3229 | – | 670.48
9010 kPa, x2 = 0.7021 | – | 693.71
9010 kPa, x2 = 0.8941 | – | 720.71
9020 kPa, x2 = 0.1231 | – | 666.89
9020 kPa, x2 = 0.4272 | – | 674.14
10010 kPa, x2 = 0.1231 | – | 668.07
10010 kPa, x2 = 0.2315 | – | 670.27
10010 kPa, x2 = 0.3229 | – | 671.75
10010 kPa, x2 = 0.4272 | – | 675.41
10010 kPa, x2 = 0.7021 | – | 694.96
10010 kPa, x2 = 0.8941 | – | 721.93
11000 kPa, x2 = 0.1231 | 679.16 | –
11000 kPa, x2 = 0.4272 | 688.79 | –
11010 kPa, x2 = 0.1231 | – | 669.29
11010 kPa, x2 = 0.2315 | 682.07 | 671.48
11010 kPa, x2 = 0.3229 | – | 672.98
11010 kPa, x2 = 0.4272 | – | 676.62
11010 kPa, x2 = 0.7021 | 709.06 | –
11010 kPa, x2 = 0.8941 | 735.52 | 723.15
11020 kPa, x2 = 0.3229 | 684.47 | –
11020 kPa, x2 = 0.7021 | – | 696.2
12000 kPa, x2 = 0.3229 | 685.59 | 674.18
12000 kPa, x2 = 0.7021 | 710.18 | 697.42
12010 kPa, x2 = 0.1231 | 680.24 | 670.44
12010 kPa, x2 = 0.2315 | 683.2 | 672.7
12010 kPa, x2 = 0.4272 | 689.92 | 677.87
12010 kPa, x2 = 0.8941 | 736.6 | 724.32
13000 kPa, x2 = 0.4272 | – | 679.08
13000 kPa, x2 = 0.8941 | – | 725.44
13010 kPa, x2 = 0.1231 | 681.32 | 671.61
13010 kPa, x2 = 0.3229 | – | 675.41
13010 kPa, x2 = 0.4272 | 691.03 | –
13010 kPa, x2 = 0.7021 | 711.31 | 698.65
13010 kPa, x2 = 0.8941 | 737.63 | –
13020 kPa, x2 = 0.2315 | 684.28 | 673.89
13020 kPa, x2 = 0.3229 | 686.69 | –
14000 kPa, x2 = 0.3229 | 687.76 | 676.57
14000 kPa, x2 = 0.4272 | 692.13 | –
14000 kPa, x2 = 0.8941 | 738.72 | –
14010 kPa, x2 = 0.1231 | 682.37 | –
14010 kPa, x2 = 0.2315 | 685.35 | –
14010 kPa, x2 = 0.4272 | – | 680.27
14010 kPa, x2 = 0.7021 | – | 699.83
14010 kPa, x2 = 0.8941 | – | 726.63
14020 kPa, x2 = 0.1231 | – | 672.74
14020 kPa, x2 = 0.2315 | – | 675.04
14020 kPa, x2 = 0.7021 | 712.38 | –
15000 kPa, x2 = 0.2315 | – | 676.17
15000 kPa, x2 = 0.4272 | 693.19 | –
15010 kPa, x2 = 0.1231 | 683.4 | 673.85
15010 kPa, x2 = 0.3229 | 688.83 | 677.73
15010 kPa, x2 = 0.4272 | – | 681.42
15010 kPa, x2 = 0.7021 | 713.45 | –
15010 kPa, x2 = 0.8941 | – | 727.76
15020 kPa, x2 = 0.2315 | 686.39 | –
15020 kPa, x2 = 0.7021 | – | 700.99
15020 kPa, x2 = 0.8941 | 739.75 | –
16000 kPa, x2 = 0.2315 | 687.43 | 677.27
16000 kPa, x2 = 0.8941 | 740.76 | –
16010 kPa, x2 = 0.1231 | 684.41 | 674.91
16010 kPa, x2 = 0.3229 | – | 678.86
16010 kPa, x2 = 0.4272 | 694.24 | 682.56
16010 kPa, x2 = 0.7021 | 714.52 | –
16020 kPa, x2 = 0.3229 | 689.88 | –
16020 kPa, x2 = 0.7021 | – | 702.15
16020 kPa, x2 = 0.8941 | – | 728.86
17000 kPa, x2 = 0.1231 | – | 676
17000 kPa, x2 = 0.8941 | 741.78 | 729.95
17010 kPa, x2 = 0.1231 | 685.42 | –
17010 kPa, x2 = 0.2315 | – | 678.41
17010 kPa, x2 = 0.3229 | 690.92 | –
17010 kPa, x2 = 0.4272 | 695.25 | 683.64
17010 kPa, x2 = 0.7021 | 715.56 | –
17020 kPa, x2 = 0.2315 | 688.48 | –
17020 kPa, x2 = 0.3229 | – | 679.98
17020 kPa, x2 = 0.7021 | – | 703.28
18000 kPa, x2 = 0.3229 | 691.91 | –
18000 kPa, x2 = 0.7021 | 716.55 | –
18010 kPa, x2 = 0.1231 | 686.41 | 677.05
18010 kPa, x2 = 0.2315 | 689.45 | 679.45
18010 kPa, x2 = 0.4272 | – | 684.75
18010 kPa, x2 = 0.7021 | – | 704.37
18010 kPa, x2 = 0.8941 | 742.76 | –
18020 kPa, x2 = 0.3229 | – | 681.03
18020 kPa, x2 = 0.4272 | 696.27 | –
18020 kPa, x2 = 0.8941 | – | 731.02
19000 kPa, x2 = 0.2315 | – | 680.43
19000 kPa, x2 = 0.3229 | 692.9 | –
19000 kPa, x2 = 0.4272 | 697.25 | –
19000 kPa, x2 = 0.7021 | – | 705.41
19010 kPa, x2 = 0.1231 | 687.34 | 678.04
19010 kPa, x2 = 0.2315 | 690.38 | –
19010 kPa, x2 = 0.3229 | – | 682.1
19010 kPa, x2 = 0.4272 | – | 685.8
19010 kPa, x2 = 0.8941 | 743.72 | 732.06
19020 kPa, x2 = 0.7021 | 717.54 | –
20000 kPa, x2 = 0.1231 | 688.24 | –
20000 kPa, x2 = 0.2315 | 691.33 | –
20000 kPa, x2 = 0.3229 | 693.81 | –
20010 kPa, x2 = 0.1231 | – | 679
20010 kPa, x2 = 0.2315 | – | 681.42
20010 kPa, x2 = 0.3229 | – | 683.05
20010 kPa, x2 = 0.4272 | 698.23 | 686.85
20010 kPa, x2 = 0.7021 | 718.51 | –
20020 kPa, x2 = 0.7021 | – | 706.48
20020 kPa, x2 = 0.8941 | 744.66 | 733.04
